Laboratory results: ChEMBL document CHEMBL1133199, “Synthesis and uptake of nitric oxide-releasing drugs by the P2 nucleoside transporter in Trypanosoma equiperdum” (Bioorg Med Chem Lett, 2000)

T1: Adenosine transporter 1 (Trypanosoma brucei, UniProt Q9Y0I0)
T1 sequence (Q9Y0I0 whole entry): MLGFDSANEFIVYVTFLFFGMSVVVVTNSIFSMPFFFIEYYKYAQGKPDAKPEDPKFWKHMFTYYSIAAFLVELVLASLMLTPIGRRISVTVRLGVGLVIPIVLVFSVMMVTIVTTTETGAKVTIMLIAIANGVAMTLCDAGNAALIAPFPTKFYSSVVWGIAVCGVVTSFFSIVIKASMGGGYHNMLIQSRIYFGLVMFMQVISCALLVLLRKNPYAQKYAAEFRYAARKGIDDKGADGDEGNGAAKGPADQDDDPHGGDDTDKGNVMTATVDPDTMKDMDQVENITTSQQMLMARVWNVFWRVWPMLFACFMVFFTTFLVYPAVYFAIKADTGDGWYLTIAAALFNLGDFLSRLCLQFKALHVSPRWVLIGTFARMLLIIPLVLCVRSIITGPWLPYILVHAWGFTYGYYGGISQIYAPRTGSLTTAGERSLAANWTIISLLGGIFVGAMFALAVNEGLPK

B1: Adenosine transporter 1 (Trypanosoma brucei), Q9Y0I0 (protein)
chain: T1 sequence (Q9Y0I0 whole entry)

Molecular target: T1, Adenosine transporter 1
Assay: (§1) Compound was tested for inhibition of Adenosine transporter P2 type by using [2-3H]adenosine as radioligand in Trypanosoma equiperdum

| Ki | Molecule |
| --- | --- |
| 12.3 µM | Nc1ncnc2c1ncn2[C@@H]1O[C@H](CO[N+](=O)[O-])[C@@H](O)[C@H]1O |
| 3.47 µM | CC(=O)NC(C(=O)NC[C@H]1OC(n2cnc3c(N)ncnc32)[C@H](O)[C@@H]1O)C(C)(C)SN=O (some centres not stated) |
| > 1000 µM | CC(=O)N[C@@H](C(=O)O)C(C)(C)SN=O |
| 0.62 µM | CC(=O)NC(C(=O)NCCn1cnc2c(N)ncnc21)C(C)(C)SN=O (configuration not stated) |
| 117 µM | Nc1nc(N)c2c(no[n+]2[O-])n1 |
| 0.2 µM | Nc1nc(N)nc(Nc2ccc(CCO[N+](=O)[O-])cc2)n1 |
| 0.58 µM | CC(=O)NC(C(=O)Nc1ccc(Nc2nc(N)nc(N)n2)cc1)C(C)(C)SN=O (configuration not stated) |
| 404 µM | CC(=O)NC(C(=O)Nc1ccc(N)nc1)C(C)(C)SN=O (configuration not stated) |

| Molecule | Ki |
| --- | --- |
| O=[N+]([O-])OCc1ccccc1 | > 1000 µM |
| Nc1ncnc2c1ncn2CCO[N+](=O)[O-] | 1.9 µM |
| NCCS[As](SCCN)c1ccc(Nc2nc(N)nc(N)n2)cc1 [CYMELARSEN] | 22.9 µM |

Compound: Nc1ncnc2c1ncn2[C@@H]1O[C@H](CO)[C@@H](O)[C@H]1O
Assay: as §1

| Molecule | Km |
| --- | --- |
| B1 | 0.7 µM |
